System: Boophilus microplus, Biarra-Stamm
Assay: Tick test (Zeckentest): in vitro test for inhibition of egg laying after dipping adult engorged female ticks
Type: in vivo
Conditions: Rhipicephalus microplus, 480 h, resistant Biarra strain, 1 min dip, read after 20 days, read-out: 50 % Hemmung bei einer Wirkstoffkonzentration in ppm a.i. von
Text: Lösungsmittel: 35 Gewichtsteile Ethylenglykolmonomethylether 35 Gewichtsteile Nonylphenolpolyglykolether
Zwecks Herstellung einer geeigneten Formulierung vermischt man drei Gewichtsteile Wirkstoff mit sieben Teilen des oben angegebenen Lösungsmittel-Emulgator-Gemisches und verdünnt das so erhaltene Emulsionskonzentrat mit Wasser auf die jeweils gewünschte Konzentration.
In diese Wirkstoffzubereitungen werden adulte, vollgesogene Zeckenweibchen der Art Boophilus microplus (resistent) eine Minute lang getaucht. Nach dem Tauchen von je 10 weiblichen Exemplaren überführt man diese in Petrischalen, deren Boden mit einer entsprechend großen Filterscheibe belegt ist.
Nach 20 Tagen wird die Wirksamkeit der Wirkstoffzubereitung bestimmt durch Ermittlung der Hemmung der Eiablage gegenüber unbehandelten Kontrollzecken. Die Wirkung drückt man in Prozent aus, wobei 100 % bedeutet, daß keine Eier mehr abgelegt wurden und 0 % besagt, daß die Zecken Eier in normaler Menge ablegten.
Untersuchter Wirkstoff, geprüfte Konzentrationen, getestete Parasiten und erhaltene Befunde gehen aus der folgenden Tabelle hervor.

IC50: > 5000 µg/mL
Structure (SMILES): Cc1cc(Cl)ccc1NC(=S)N(C)C [Chloromethiuron]

Source: patent EP0073394A1, “2-Arylazo-2-imidazolines, acyl derivatives of the same, process for their preparation and the use in the control of ectoparasites and/or endoparasites” (BAYER AG, priority 1981, dated 1983)
